Experimental data from patent US20100105948A1, “HOP ALPHA ACID OR HOP OIL CONTENT ENHANCER” (COSMO OIL CO., LTD., priority 2007, published 2010).

Tests used:
[1] = test system: hop (Zatecky poloskory cervenak); experiment: Foliar treatment of hop seedlings (Example 1): contents of alpha acid, beta acid, hop oils; dry weight; format: in vivo; conditions: for (Reference) Dry weight / Beta acid (%) / Hop oil myrcene / Hop oil pharnesene / Alpha acid (%) / (Reference) Dry weight, ratio to no treatment / Alpha acid (ratio to no treatment) / Beta acid (ratio to no treatment) / Hop oil myrcene (ratio to no treatment) / Hop oil pharnesene (ratio to no treatment): foliar treatment 5 times; for Alpha acid (%): Zatecky poloskory cervenak; for (Reference) Dry weight, ratio to no treatment / Alpha acid (ratio to no treatment) / Beta acid (ratio to no treatment) / Hop oil myrcene (ratio to no treatment) / Hop oil pharnesene (ratio to no treatment): no treatment = 100
Description: Seedlings of Zatecky poloskory cervenak cultivated by conventional method in Slovakia in 2006 were subjected to foliar treatment at timing shown in Table 1 with an aqueous 5-aminolevulinic acid (ALA) hydrochloride solution shown in Table 2.

[2] = test system: hop (high alpha acid type Marynka species); experiment: Foliar treatment of hop seedlings (Example 2): alpha acid content; yield; format: in vivo; conditions: for Alpha acid (%): Marynka; for (Reference) Yield (ratio to no treatment %) / Alpha acid (ratio to no treatment): no treatment = 100
Description: Seedlings of a high alpha acid type Marynka species cultivated by conventional method in Poland in 2006 were subjected to foliar treatment at timing shown in Table 4 with an aqueous ALA hydrochloride solution the same as in Example 1.

[3] = Treatment 1 (basal fertilizer 30% up): 0.05%, 1000 L/ha, 6 times
[4] = Treatment 1: 0.05%, 1000 L/ha, 6 times
[5] = Treatment 2: 0.05%, 1000, 2000, 3000 L/ha at 1st, 3rd, 5th time

NCC(=O)CCC(=O)O [ALA, 5-aminolevulinic acid]
contents of an alpha acid, a beta acid, and hop oils ([1]; ALA treatment versus no treatment, Table 3, in words): remarkably increased | (Reference) Dry weight ([1]; 0.02%, 2500 L/ha): 1.76 t/ha | Beta acid (%) ([1]; 0.02%, 2500 L/ha): 4.62% | Hop oil myrcene ([1]; 0.02%, 2500 L/ha): 51.6 | Hop oil pharnesene ([1]; 0.02%, 2500 L/ha): 19.9 | Alpha acid (%) ([1]; 0.02%, 2500 L/ha): 3.26% | (Reference) Dry weight, ratio to no treatment ([1]; 0.02%, 2500 L/ha): 125% | Alpha acid (ratio to no treatment) ([1]; 0.02%, 2500 L/ha): 127 | Beta acid (ratio to no treatment) ([1]; 0.02%, 2500 L/ha): 105 | Hop oil myrcene (ratio to no treatment) ([1]; 0.02%, 2500 L/ha): 149 | Hop oil pharnesene (ratio to no treatment) ([1]; 0.02%, 2500 L/ha): 121 | (Reference) Dry weight ([1]; 0.1%, 500 L/ha): 1.44 t/ha | Beta acid (%) ([1]; 0.1%, 500 L/ha): 4.95% | Hop oil myrcene ([1]; 0.1%, 500 L/ha): 57.0 | Hop oil pharnesene ([1]; 0.1%, 500 L/ha): 17.6 | Alpha acid (%) ([1]; 0.1%, 500 L/ha): 3.11% | (Reference) Dry weight, ratio to no treatment ([1]; 0.1%, 500 L/ha): 103% | Alpha acid (ratio to no treatment) ([1]; 0.1%, 500 L/ha): 121 | Beta acid (ratio to no treatment) ([1]; 0.1%, 500 L/ha): 113 | Hop oil myrcene (ratio to no treatment) ([1]; 0.1%, 500 L/ha): 164 | Hop oil pharnesene (ratio to no treatment) ([1]; 0.1%, 500 L/ha): 107 | content of an alpha acid ([2]; ALA treatment versus no treatment, Table 5, in words): remarkably increased | (Reference) Yield (kg/ha) [2, 3]: 1610 kg/ha | Alpha acid (%) [2, 3]: 6.98% | (Reference) Yield (ratio to no treatment %) [2, 3]: (104) % | Alpha acid (ratio to no treatment) [2, 3]: (104) | (Reference) Yield (kg/ha) [2, 4]: 1609 kg/ha | Alpha acid (%) [2, 4]: 6.82% | (Reference) Yield (ratio to no treatment %) [2, 4]: (104) % | Alpha acid (ratio to no treatment) [2, 4]: (102) | (Reference) Yield (kg/ha) [2, 5]: 1610 kg/ha | Alpha acid (%) [2, 5]: 6.95% | (Reference) Yield (ratio to no treatment %) [2, 5]: (104) % | Alpha acid (ratio to no treatment) [2, 5]: (104)
